#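 These data come from cells grown in 96-well plates and exposed to compound for 48 hours at five concentrations. GI50 = concentration required for 50% inhibition of growth.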 Active and inactive are the calls of the source. Cut-off read from the data, not from the text of the source: active = GI50 up to about 1.1 µM and inactive = higher.
# What was measured:
# Assay in all cases: NCI anticancer screen, dose series, 48 h
# [1] = test system: Malme-3M
# [2] = test system: SF-295
# [3] = test system: UO-31
# [4] = test system: PC-3
# [5] = test system: SF-539
# [6] = test system: SNB-75
# [7] = test system: IGROV-1
# [8] = test system: SK-MEL-2
# [9] = test system: DU-145
# [10] = test system: SW-620
# [11] = test system: SR
# [12] = test system: OVCAR-5
# [13] = test system: MDA-MB-435
# [14] = test system: NCI-H226
# [15] = test system: SN12C
# [16] = test system: T47D
# [17] = test system: OVCAR-8
# [18] = test system: HCT-15
# [19] = test system: HL-60
# [20] = test system: MOLT-4
Compound,GI50 [1],GI50 [2],GI50 [3],GI50 [4],GI50 [5],GI50 [6],GI50 [7],GI50 [8],GI50 [9],GI50 [10],GI50 [11],GI50 [12],GI50 [13],GI50 [14],GI50 [15],GI50 [16],GI50 [17],GI50 [18] [µM],GI50 [19],GI50 [20]
O=C(O)CCc1nc(-c2ccccc2-n2cccc2)no1,52.6 µM (inactive),49.9 µM (inactive),> 100 µM (inactive),> 100 µM (inactive),> 100 µM (inactive),> 100 µM (inactive),73.1 µM (inactive),> 100 µM (inactive),> 100 µM (inactive),> 100 µM (inactive),5.46 µM (inactive),> 100 µM (inactive),16.6 µM (inactive),> 100 µM (inactive),> 100 µM (inactive),> 100 µM (inactive),> 100 µM (inactive),> 100,,
CC(=O)Nc1c(C)cc(OCC(=O)O)cc1C,> 100 µM (inactive),> 100 µM (inactive),> 100 µM (inactive),> 100 µM (inactive),,> 100 µM (inactive),> 100 µM (inactive),> 100 µM (inactive),> 100 µM (inactive),> 100 µM (inactive),> 100 µM (inactive),> 100 µM (inactive),> 100 µM (inactive),> 100 µM (inactive),> 100 µM (inactive),> 100 µM (inactive),> 100 µM (inactive),> 100,> 100 µM (inactive),
Sc1nnc(COc2ccc(Cl)cc2)n1-c1ccccc1,> 100 µM (inactive),> 100 µM (inactive),61.2 µM (inactive),> 100 µM (inactive),> 100 µM (inactive),> 100 µM (inactive),> 100 µM (inactive),> 100 µM (inactive),> 100 µM (inactive),> 100 µM (inactive),,> 100 µM (inactive),> 100 µM (inactive),> 100 µM (inactive),> 100 µM (inactive),30.4 µM (inactive),> 100 µM (inactive),> 100,> 100 µM (inactive),88.3 µM (inactive)
O=C(c1ccccc1)n1c(Cc2ccccc2)nc2cc(C34CC5CC(CC(C5)C3)C4)ccc21,29.3 µM (inactive),52.2 µM (inactive),35.2 µM (inactive),49 µM (inactive),,31.6 µM (inactive),53.6 µM (inactive),31.9 µM (inactive),56.5 µM (inactive),80.7 µM (inactive),39.6 µM (inactive),56.8 µM (inactive),92 µM (inactive),58.3 µM (inactive),35.8 µM (inactive),36.7 µM (inactive),37.2 µM (inactive),18.2,33.7 µM (inactive),35.9 µM (inactive)
Cc1cc(C2(c3cc(C)c(O)c4ncccc34)OC(=O)c3ccccc32)c2cccnc2c1O,1 µM (active),0.0299 µM (active),0.00574 µM (active),0.265 µM (active),0.0376 µM (active),0.069 µM (active),0.0378 µM (active),0.262 µM (active),0.0659 µM (active),0.0304 µM (active),,11.3 µM (inactive),0.0682 µM (active),0.01 µM (active),0.0353 µM (active),0.0382 µM (active),0.00615 µM (active),< 0.001,0.0247 µM (active),0.522 µM (active)
CCOCCOC(=O)C1CCC(=O)N1CN(C(C)=O)c1cc(OC)ccc1OC (stereo not given),> 100 µM (inactive),> 100 µM (inactive),> 100 µM (inactive),> 100 µM (inactive),> 100 µM (inactive),> 100 µM (inactive),> 100 µM (inactive),> 100 µM (inactive),> 100 µM (inactive),> 100 µM (inactive),1 µM (active),> 100 µM (inactive),> 100 µM (inactive),> 100 µM (inactive),> 100 µM (inactive),> 100 µM (inactive),> 100 µM (inactive),> 100,,> 100 µM (inactive)
O=C1Nc2ccc(Br)cc2/C1=N/S(=O)(=O)O,26.1 µM (inactive),33.7 µM (inactive),35 µM (inactive),13.3 µM (inactive),,24.5 µM (inactive),55.2 µM (inactive),6.61 µM (inactive),57.1 µM (inactive),18.2 µM (inactive),,27.6 µM (inactive),6.38 µM (inactive),28.4 µM (inactive),18.4 µM (inactive),29 µM (inactive),24.4 µM (inactive),21.9,12.9 µM (inactive),22 µM (inactive)
C=C1c2c(n(S(=O)(=O)c3ccccc3)c3ccccc23)[C@@]2(C(=O)OC)CC3C=CC2N1C3,> 100 µM (inactive),> 100 µM (inactive),,> 100 µM (inactive),> 100 µM (inactive),> 100 µM (inactive),> 100 µM (inactive),> 100 µM (inactive),> 100 µM (inactive),> 100 µM (inactive),,> 100 µM (inactive),> 100 µM (inactive),> 100 µM (inactive),> 100 µM (inactive),> 100 µM (inactive),> 100 µM (inactive),> 100,8.09 µM (inactive),> 100 µM (inactive)
CC1=NNC(=O)C1C1CC(c2c[nH]c3ccccc23)=NNC1=O (stereo not given),> 100 µM (inactive),> 100 µM (inactive),> 100 µM (inactive),> 100 µM (inactive),> 100 µM (inactive),28.4 µM (inactive),0.773 µM (active),> 100 µM (inactive),> 100 µM (inactive),> 100 µM (inactive),,> 100 µM (inactive),> 100 µM (inactive),> 100 µM (inactive),> 100 µM (inactive),> 100 µM (inactive),> 100 µM (inactive),> 100,> 100 µM (inactive),> 100 µM (inactive)
COC(=O)[C@H](Cc1ccccc1)NC(=O)[C@H](Cc1ccccc1)NC(=O)[C@@H]1CCCN1C(=O)N[C@H]1C2C=CC(C2)C1C(=O)N1CCC[C@H]1C(=O)N[C@@H](C)C(=O)N[C@H](C(=O)OC)C(C)C (stereo not given in full),> 100 µM (inactive),30.8 µM (inactive),> 100 µM (inactive),> 100 µM (inactive),,> 100 µM (inactive),38 µM (inactive),,> 100 µM (inactive),69.3 µM (inactive),49.7 µM (inactive),> 100 µM (inactive),> 100 µM (inactive),> 100 µM (inactive),> 100 µM (inactive),60.1 µM (inactive),> 100 µM (inactive),> 100,35.7 µM (inactive),29.4 µM (inactive)
O=c1oc2ccccc2c(O)c1C1c2c(c3ccccc3oc2=O)Oc2c1c(=O)oc1ccccc21,> 100 µM (inactive),,19 µM (inactive),50.6 µM (inactive),,57.1 µM (inactive),35 µM (inactive),51.6 µM (inactive),53.5 µM (inactive),38.2 µM (inactive),,,28.7 µM (inactive),22.4 µM (inactive),30.1 µM (inactive),38.4 µM (inactive),32.1 µM (inactive),27.9,,47.5 µM (inactive)

# — ChEMBL document CHEMBL1201862, “PubChem BioAssay data set” (2004)
